Measured values reported in publication PMC8859269, “Lichenysin Production by Bacillus licheniformis Food Isolates and Toxicity to Human Cells” (Frontiers in Microbiology, 2022).
In brackets after ≈: the same amount, converted by molar mass. Entries after “also recorded” stand apart in the source; their conditions may differ. Read-outs that look alike come from different tables or passages of the source. Numbered stars: 1 amine (or outer) side, 2 acyl side, 3 side chain; on linkers, the order of the positions; unused ones are H or OH. Bridge positions count the residues as written; N and C are the ends. Square brackets hold non-standard residues; d marks the D form. Peptide text beside a SMILES is read from it. X2 = CC(C)CCCCCCCCC[C@H](CC(=O)[*:1])O[*:2]

Tests used:
[1] = alamarBlue cytotoxicity assay, HEK293 cells; type: cell-based, human; details: human; HEK293, 72 h exposure, alamarBlue; read-out: IC50 (cytotoxic level)
Method: (§1) To perform cytotoxicity assay, two batches of concentrated lichenysin were prepared from biomass grown on LB agar plates as described in section “Extraction of Lichenysin From Biomass Collected From Surface Growth on LB Agar and Skimmed Milk Agar.” Instead of using 150 mg biomass, lichenysin was extracted from 6.5 g of biomass from strain B4123, and dissolved in a final volume of 300 μl methanol. A small aliquot of 1 μl was taken to determine the concentration of the concentrated lichenysin extract via Reversed-Phase High-Performance Liquid Chromatography – Electro Spray Ionization Mass Spectrometry (RP-HPLC-ESI-MS). […]
(§2) The alamarBlue (Thermo Fischer Scientific) fluorometric assay was used to examine the cytotoxicity of lichenysin and surfactin toward two human cell lineages (HEK293, Caco-2) and ileum organoids from pigs. Culturing medium DMEM with Alamar blue (i.e., a no-cells control) and cells exposed to 10% DMSO were used to correct for background fluorescence and cell death, respectively. […]
(§3) The alamarBlue assay was performed as described in [Burczynski et al. (2000)], [Hamid et al. (2004)], and [Rampersad (2012)]. […] The fluorescence at the emission wavelength of 590 nm was measured with a SpectraMax M5 (Molecular Devices, San Jose, CA, United States) and expressed as relative fluorescence units. […]
(§4) The cell viability (%) was calculated by using the formula: […]

[2] = tested on: Human Embryonic Kidney (HEK293) cells; assay: alamarBlue cytotoxicity assay, HEK293 cells; type: cell-based; details: HEK293, 200 μM (∼200 μg/ml), exposure for 72 h
Method: as §1, §2, §3, §4

[3] = alamarBlue cytotoxicity assay, Caco-2 cells; type: cell-based, human; details: human, Caco-2, 72 h exposure, alamarBlue; read-out: IC50 (cytotoxic level)
Method: (§5) To perform cytotoxicity assay, two batches of concentrated lichenysin were prepared from biomass grown on LB agar plates as described in section “Extraction of Lichenysin From Biomass Collected From Surface Growth on LB Agar and Skimmed Milk Agar.” Instead of using 150 mg biomass, lichenysin was extracted from 6.5 g of biomass from strain B4123, and dissolved in a final volume of 300 μl methanol. A small aliquot of 1 μl was taken to determine the concentration of the concentrated lichenysin extract via Reversed-Phase High-Performance Liquid Chromatography – Electro Spray Ionization Mass Spectrometry (RP-HPLC-ESI-MS). The remaining concentrated extract was entirely evaporated under a flow of nitrogen at 40°C in a heating block. The dry residue was resuspended in either 99% Dimethyl Sulfoxide (DMSO) or Dulbecco’s Modified Eagle Medium (DMEM; Gibco, Thermo Fischer Scientific, Bleiswijk, Netherlands) without phenol red serum or antibiotics. Surfactin (purchased from Merck) was also used in cytotoxicity assays by dissolving 10 mg in 1 ml of distilled water (10 mM) (with an adjusted pH of ∼11.7 to obtain full solubility). Both lichenysin and surfactin were diluted to the desired concentration in DMEM medium without phenol red, serum and antibiotics before adding to the cells.
(§6) Human Embryonic Kidney (HEK293) cells were obtained from Invivogen (San Diego, CA, United States), and Caco-2 human intestinal epithelial cells (ATCC HTB-37) were purchased from the American Type Culture Collection (Manassas, VA, United States). Both cell lines were maintained in DMEM medium containing 10 % Fetal Bovine Serum (FBS) (Thermo Fischer Scientific) and 1 % penicillin/streptomycin (Merck) to attain a confluent growth. The grown HEK293 and Caco-2 cells were seeded and suspended at a final concentration of 2 × 10^5 cells/ml (in 200 μl) in 96 wells-plates (Greiner). […]
as §2
(§7) The alamarBlue assay was performed as described in [Burczynski et al. (2000)], [Hamid et al. (2004)], and [Rampersad (2012)]. […] The fluorescence at the emission wavelength of 590 nm was measured with a SpectraMax M5 (Molecular Devices, San Jose, CA, United States) and expressed as relative fluorescence units. The average fluorescence of the no-cells control was used to normalize all recorded fluorescence emission values.
as §4

[4] = tested on: Caco-2 human intestinal epithelial cells; assay: alamarBlue cytotoxicity assay, Caco-2 cells; type: cell-based; details: Homo sapiens, Caco-2, 72 h
Method: as §5, §6, §2, §7, §4

[5] = alamarBlue cytotoxicity assay, pig ileum organoids; type: cell-based; details: 72 h exposure, alamarBlue, read-out: IC50 (cytotoxic level)
Method: as §1, §2, §3, §4

pig ileum organoids = assay: alamarBlue cytotoxicity assay, pig ileum organoids; type: cell-based; details: 200 μM, 72 h
Method: as §1, §2, §3, §4

Compound: CC(C)CCCCCCCCC[C@@H]1CC(=O)N[C@@H](CCC(=O)O)C(=O)N[C@@H](CC(C)C)C(=O)N[C@H](CC(C)C)C(=O)N[C@@H](C(C)C)C(=O)N[C@@H](CC(=O)O)C(=O)N[C@H](CC(C)C)C(=O)N[C@@H](CC(C)C)C(=O)O1 [Surfactin, cyclo-[Glu^1-Leu^2-Leu^3-Val^4-Asp^5-Leu^6-Leu^7 − − β-OH fatty acid]] (EL[dL]VD[dL]L; linker N-C via X2)
- IC50 [1]: > 200 µg/mL
- toxicity at the highest tested concentration [2]: not toxic
- IC50 [3]: 23.5 µg/mL (≈ 22.7 µM)
- IC50 ([4]; Caco-2, 72 h incubation, read-out: concentration needed to reduce cell viability by 50% (IC50)): 23.4 µg/mL
- IC50 ([4]; in log10 scale, read-out: IC50 in log10 scale (converted)): 1.37 µM
- IC50 ([4]; read-out: IC50): 23.5 µM
- IC50 [5]: > 200 µg/mL
- toxicity at the highest tested concentration (pig ileum organoids): did not show toxicity; also recorded: no toxicity was seen
